Experiments:
HIV-RT = biological target: T1, HIV-RT (HIV-1 M:B_HXB2R, UniProt P04585); experiment: Incorporation of oxidized dCTP derivatives into gapped M13mp2 DNA by HIV-RT; format: biochemical; details: for Molecules incorporated by HIV-RT per molecule of template: 2 min incubation
T1 construct: mature RT cut from Gag-Pol polyprotein (Pr160Gag-Pol)
Method: The purification of oxidized derivatives of dCTP is monitored by measuring incorporation into gapped DNA. The gapped DNA consists of a single-stranded circular M13mp2 DNA containing uracil residues annealed to a linear incomplete complementary strand lacking uracil so as to create a 361-nt gap spanning part of the lacZ gene (prepared as described in Feig and Loeb, Biochemistry 32:4466-73, 1993). The reaction mixture (0.02 ml) contains: 200 ng of gapped DNA, 60 mM Tris-HCl (pH 8.0), 10 mM KCl, 7 mM MgCl2, 1 mM dithiothreitol, 0.5 mM EDTA, 200 μM (each) dATP, dGTP and TTP, 1 μM α-^32 P!dCTP or modified dCTP (692 cpm/pmol), and 1.25 units of recombinant HIV-RT (Preston et al., Science 242:1168-1171, 1988) (1 unit is the amount of enzyme required to catalyze the incorporation of 1 nmol of dNTP into DNA in 1 h at 37° C.). The nucleotide bias in this reaction drives the incorporation of modified cytosine only at sites opposite guanosines in the lacZα gene. Samples are extracted once each with phenol and chloroform/isoamyl alcohol, 24:1, followed by ethanol precipitation in the presence of 400 mM NaCl and 10 μg of glycogen (as a coprecipitant). […]
The column fractions are used in place of dCTP for DNA synthesis reactions. […] Partially double-stranded DNA products are purified, and gap filling synthesis is completed using the Klenow fragment of E. coli DNA polymerase I. Incorporation of oxidized cytosine derivatives is quantified by scintillation counting and the toxicity of the fractions is assessed by comparing the transfection efficiency of DNA synthesized by using fractions containing the altered nucleotides to that of DNA synthesized with dCTP passed through the same column. The mutagenicity of each fraction is measured by scoring forward mutations in the lacZ gene for β-galactosidase (Kunkel, Proc. Natl. Acad Sci. USA 81:1494-1498, 1984).

[1] = test system: mammalian DNA polymerase-α; experiment: Incorporation by mammalian DNA polymerase-α; format: biochemical
Method: (§1) Five different mammalian DNA polymerases have been identified, purified and characterized. These are designated as DNA polymerases α, β, γ, δ, ε based on their amino acid sequences, intracellular localization and presumed role in cellular DNA metabolism (Fry and Loeb, CRC Press, 1986). The ability of a human DNA polymerase to incorporate a deoxynucleoside triphosphates analogs is determined using a DNA template that corresponds to the sequence of the RNA template used to analyze incorporation by HIV RT. A direct comparison is made on the incorporation of nucleoside analogs in the triphosphate form using a human DNA polymerase with that of HIV RT.

[2] = test system: mammalian DNA polymerase-β; experiment: Incorporation by mammalian DNA polymerase-β; format: biochemical
Method: as §1

lacZ gene = experiment: Forward mutation assay in lacZ of gapped M13mp2 DNA (reduced α-complementation) after transfection into E. coli; format: cell-based; details: for Transfection efficiency, plaques per ng: Table I, gap filled by pol-I1f; for Transfection efficiency, plaques per ng / Transfection efficiency (yield of transfectants) / Mutation frequency: with HIV-RT; for Mutation frequency: number of mutants in parentheses in Table I
Excerpt: The column fractions are used in place of dCTP for DNA synthesis reactions. The DNA template is a double-stranded M13mp2 molecule with a 361-nt single-stranded gap spanning part of the lacZ gene for bacterial β-galactosidase. The uracil-containing strand is rapidly hydrolyzed upon transfection in E. coli, resulting in a 10^4 -fold preferential expression of the strand lacking uracil and preventing the repair of altered cytidines incorporated into the strand lacking uracil. DNA synthesis is catalyzed by HIV RT in the presence of 200 μM dATP, dGTP and TTP and 1 μM of each fraction from the reverse-phase column. Partially double-stranded DNA products are purified, and gap filling synthesis is completed using the Klenow fragment of E. coli DNA polymerase I. Incorporation of oxidized cytosine derivatives is quantified by scintillation counting and the toxicity of the fractions is assessed by comparing the transfection efficiency of DNA synthesized by using fractions containing the altered nucleotides to that of DNA synthesized with dCTP passed through the same column. The mutagenicity of each fraction is measured by scoring forward mutations in the lacZ gene for β-galactosidase (Kunkel, Proc. Natl. Acad Sci. USA 81:1494-1498, 1984).
Mutations produced by the incorporation of oxidized derivatives of dCTP into gapped DNA are identified by reduced α-complementation of β-galactosidase activity. Logarithmic-phase MC1061 hsdR, mcrR, araD, (139.increment.^- araABC^- leu) 7679.increment.lacX74, galU, galK, rspL, thi^- ! is prepared for electroporation by washing the cells four times with sterile H2 O. Cells are then pelleted and resuspended in a volume of H2 O equal to that of the packed cells. Fifty nanograms of the filled-gap DNA product is mixed with 300 μl of cells and subjected to electroporation using a Bio-Rad Gene Pulser ([…], 400 W, 2.0 KV, and time constants between 6.0 and 7.5). Samples are placed on ice and mixed with 1 ml of LB medium. Aliquots (10-40 μl) of the transfection mixtures are added to 3 ml of molten top agar (42° C.) consisting of 0.9% NaCl, 0.8% Bacto Agar, 0.08% 5-bromo-4-chloro-3-indolylβ-D-galactoside dissolved in dimethlyformamide, and 0.2 ml of CSH50 .increment.(proBlac)/F'+raD36, thi^-, ara^-, proAB, lacI^α Z^- .increment.m15! cells in logarithmic phase, and layered onto plates containing 30 ml of solidified M9 medium supplemented with 1.5% Bacto Agar and 15 mM isopropyl-β-D-thiogalactoside (IPTG). Phenotypes are confirmed by mixing mutant phage with an equal quantity of wild type M13mp2 phage and replating. Phage DNA is isolated (Kunkel, Proc. Natl. Sci. USA 81:1494-1498, 1984) and sequenced by the method of Sanger etal. (J. Mol. Biol. 125:225-246, 1978) using a 15-mer oligodeoxyribonucleotide primer complementary to the +179 to +194 segment of the lacZα coding sequence.
Mutagenic potential of γ is assessed by using a forward mutation assay. To reduce the frequency of mutations arising from the incorporation of noncomplementary nucleotides by HIV-RT, this incubation is performed for only 2 min. Under these conditions, HIV-RT incorporates approximately five molecules of γ or nine molecules of undamaged dCTP per molecule of template. The gapped DNA is then completely filled by pol-I1f (the large fragment of E. coli DNA polymerase I) using the four undamaged nucleotides as substrates. The transfection efficiencies and mutation frequencies are given in Table I. In reactions without HIV-RT, 1040 transfectants are obtained per ng DNA, whereas with HIV-RT and undamaged dCTP ("purified" by reverse-phase and strong-anion exchange chromatography) the yield is 165 transfectants per ng of DNA. Substitution of γ for dCTP further reduced transfection efficiency, 73 transfectants per ng of DNA. In the absence of HIV-RT the mutation frequency is 4.6×10^-4 (line 1, Table I). […]

## Nc1nc(=O)n([C@H]2C[C@H](O)[C@@H](COP(=O)(O)OP(=O)(O)OP(=O)(O)O)O2)cc1O [γ, 5-hydroxy-2'-deoxycytidine 5'-triphosphate]
HIV-RT
  Molecules incorporated by HIV-RT per molecule of template: approximately five
HIV-RT; relative to dCTP, gapped DNA
  Efficiency of incorporation into DNA by HIV-RT, % of that for dCTP: about 56%
[1]
  Incorporation by mammalian DNA polymerase-α: Neither species is incorporated appreciably
[2]
  Incorporation by mammalian DNA polymerase-β relative to dCTP: 18%
lacZ gene; 173 mutations, 92 mutants sequenced
  Mutations that were C→T transitions: 95.6%
lacZ gene; 178 of 181 substitutions, 92 mutants sequenced
  Observed substitutions that occur at cytosines: 98.3%
lacZ gene
  Transfection efficiency, plaques per ng: 73 plaques per ng
  Transfection efficiency (yield of transfectants): 73 transfectants per ng of DNA
  Mutation frequency: 1200×10^-4
lacZ gene; average of five molecules of γ per template DNA, versus reaction with dCTP
  Increase of mutation frequency: 109 fold

## Nc1ccn([C@H]2C[C@H](O)[C@@H](COP(=O)(O)OP(=O)(O)OP(=O)(O)O)O2)c(=O)n1 [dCTP, reference compound]
HIV-RT
  Molecules incorporated by HIV-RT per molecule of template: nine
lacZ gene
  Transfection efficiency, plaques per ng: 165 plaques per ng
  Transfection efficiency (yield of transfectants): 165 transfectants per ng of DNA
  Mutation frequency: 11 × 10^-4
lacZ gene; versus absence of HIV-RT
  Increase of mutation frequency by reaction with HIV-RT and dCTP: 2.4 fold
